The target in assay [1] is T1, Calmodulin-1 (Homo sapiens, UniProt P0DP23). Briefly: Inhibition of recombinant calmodulin mediated bovine brain PDE1 activation assessed as effect on inorganic phosphate release by spectrophotometry.
Assay [2] has as its target T1, Calmodulin-1. Briefly: Inhibition of recombinant calmodulin mediated bovine brain PDE1 activation assessed as effect on inorganic phosphate release using variable calmodulin level by spectrophotometry.

As for `C=C(C)[C@H]1COc2c(C)cc3oc4c([C@H](OC)[C@@H]5OC5(C)C)ccc(O)c4c(=O)c3c2[C@@H]1O`, the IC50 (as a rule, the concentration that gives 50% inhibition) at Calmodulin-1 [1] amounted to 5.54 µM. In addition, the inhibitory constant (Ki) – broadly, the dissociation constant of the complex between target and ligand, obtained from inhibition or displacement – on Calmodulin-1 [2] turned out to be 25.4 µM.
Regarding `C=C(C)[C@H]1COc2c(C)cc3oc4c(C[C@H](O)C(C)(C)O)ccc(O)c4c(=O)c3c2[C@@H]1O` [TAJIXANTHONE HYDRATE], at Calmodulin-1 [1], the IC50 was 5.62 µM. For the same compound, the Ki on Calmodulin-1 [2] worked out at 13.9 µM.
For `C=C(C)[C@H]1COc2c(C)cc3oc4c(C[C@H](Cl)C(C)(C)O)ccc(O)c4c(=O)c3c2[C@@H]1O`, the IC50 on Calmodulin-1 [1] is 9.59 µM.
In the case of `C=C(C)[C@H]1COc2c(C)cc3oc4c(CC=C(C)C)ccc(O)c4c(=O)c3c2[C@@H]1O` [SHAMIXANTHONE], on Calmodulin-1 [1], the IC50 is 29.2 µM.

(Values after ChEMBL document CHEMBL1154503, “Calmodulin inhibitors from the fungus Emericella sp” (Bioorg Med Chem, 2009).)
